The record followed here is ChEMBL document CHEMBL3526048, “In vitro metabolism of rivoglitazone, a novel peroxisome proliferator-activated receptor γ agonist, in rat, monkey, and human liver microsomes and freshly isolated hepatocytes” (Drug Metab Dispos, 2011).

One series concerns Liver microsome. Description: Drug metabolism in Sprague-Dawley rat liver microsomes assessed as formation of (2S,3S,4S,5R,6R)-6-((1-carboxy-2-(4-((6-methoxy-1-methyl-1H-benzo[d]imidazol-2-yl)methoxy)phenyl)ethylthio)carbonylamino)-3,4,5-trihydroxytetrahydro-2H-pyran-2-carboxylic acid at 20 uM after 4 hrs by radio-HPLC/LC-MS/MS analysis in presence of UDPGA and UDPGA/SAM. The series is classed as ADME.

The nature of series [1]: Drug metabolism in rat hepatocytes assessed as formation of 2-mercapto-3-(4-((6-methoxy-1-methyl-1H-benzo[d]imidazol-2-yl)methoxy)phenyl)propanoic acid at 30 uM after 3 hrs by radio-HPLC/LC-MS/MS analysis in presence of UDPGA, UDPGA/SAM and NADPH-generating system. Format: ADME, cell-based, Hepatocyte.
The target of a further series is T1, Cytochrome P450 2C8 (Homo sapiens, UniProt P10632).
T1 sequence (P10632 whole entry): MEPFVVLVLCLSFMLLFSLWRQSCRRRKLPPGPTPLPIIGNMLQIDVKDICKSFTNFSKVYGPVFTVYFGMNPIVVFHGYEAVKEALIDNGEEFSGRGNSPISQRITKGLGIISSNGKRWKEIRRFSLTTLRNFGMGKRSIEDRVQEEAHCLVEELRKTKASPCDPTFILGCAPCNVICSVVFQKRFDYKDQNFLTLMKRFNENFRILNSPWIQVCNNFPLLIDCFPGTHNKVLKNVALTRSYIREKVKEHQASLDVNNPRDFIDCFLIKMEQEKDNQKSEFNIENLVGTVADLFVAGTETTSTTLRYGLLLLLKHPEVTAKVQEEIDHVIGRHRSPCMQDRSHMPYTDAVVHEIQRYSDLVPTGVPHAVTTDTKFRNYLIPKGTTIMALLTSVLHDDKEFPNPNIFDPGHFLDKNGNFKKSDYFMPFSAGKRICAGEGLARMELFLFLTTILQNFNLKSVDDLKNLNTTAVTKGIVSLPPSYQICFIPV
Description: Activity of human CYP2C8 expressed in microsomes isolated from baculovirus infected insect cell assessed as enzyme-mediated 3-(4-((6-methoxy-1-methyl-1H-benzo[d]imidazol-2-yl)methoxy)phenyl)-2-(methylthio)propanamide formation at 20 uM after 2 hrs by radio-HPLC/LC-MS/MS analysis in presence of NADPH-generating system/SAM. Format: ADME.

A short description of series [2]: Drug metabolism in cynomolgus monkey liver microsomes assessed as formation of 5-(4-((6-hydroxy-1-methyl-1H-benzo[d]imidazol-2-yl)methoxy)benzyl)thiazolidine-2,4-dione at 20 uM after 2 hrs by radio-HPLC/LC-MS/MS analysis in presence of NADPH-generating system and NADPH-generating system/SAM. Format: ADME, Macaca fascicularis. In general terms: Microsomes from liver hold many membrane-bound enzymes, among them those of drug oxidation.

For a further series, the target named is Cytochrome P450 3A4 (Homo sapiens, UniProt P08684). The series is described as follows: Activity of human CYP3A4 expressed in microsomes isolated from baculovirus infected insect cell assessed as enzyme-mediated 2-hydroxy-3-(4-((6-methoxy-1-methyl-1H-benzo[d]imidazol-2-yl)methoxy)phenyl)propanamide formation at 20 uM after 2 hrs by radio-HPLC/LC-MS/MS analysis in presence of NADPH-generating system and NADPH-generating system/SAM. The series is classed as ADME.
Chain of Cytochrome P450 3A4 (P08684 whole entry): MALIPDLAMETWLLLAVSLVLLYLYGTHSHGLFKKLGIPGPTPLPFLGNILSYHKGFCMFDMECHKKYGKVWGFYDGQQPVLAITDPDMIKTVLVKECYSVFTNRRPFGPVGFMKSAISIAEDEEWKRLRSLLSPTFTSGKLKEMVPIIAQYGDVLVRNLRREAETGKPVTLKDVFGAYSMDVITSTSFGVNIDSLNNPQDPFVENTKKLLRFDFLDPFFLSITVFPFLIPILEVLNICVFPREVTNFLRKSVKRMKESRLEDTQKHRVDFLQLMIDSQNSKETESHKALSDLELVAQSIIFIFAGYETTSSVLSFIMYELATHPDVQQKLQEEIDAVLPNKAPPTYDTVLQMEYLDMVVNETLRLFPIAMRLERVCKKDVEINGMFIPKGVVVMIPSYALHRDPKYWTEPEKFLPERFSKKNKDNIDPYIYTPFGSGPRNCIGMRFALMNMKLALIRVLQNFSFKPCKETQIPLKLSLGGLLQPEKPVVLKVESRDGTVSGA

For series [3], the target named is T2, UDP-glucuronosyltransferase 2B15 (Homo sapiens, UniProt P54855).
T2 sequence (P54855 whole entry): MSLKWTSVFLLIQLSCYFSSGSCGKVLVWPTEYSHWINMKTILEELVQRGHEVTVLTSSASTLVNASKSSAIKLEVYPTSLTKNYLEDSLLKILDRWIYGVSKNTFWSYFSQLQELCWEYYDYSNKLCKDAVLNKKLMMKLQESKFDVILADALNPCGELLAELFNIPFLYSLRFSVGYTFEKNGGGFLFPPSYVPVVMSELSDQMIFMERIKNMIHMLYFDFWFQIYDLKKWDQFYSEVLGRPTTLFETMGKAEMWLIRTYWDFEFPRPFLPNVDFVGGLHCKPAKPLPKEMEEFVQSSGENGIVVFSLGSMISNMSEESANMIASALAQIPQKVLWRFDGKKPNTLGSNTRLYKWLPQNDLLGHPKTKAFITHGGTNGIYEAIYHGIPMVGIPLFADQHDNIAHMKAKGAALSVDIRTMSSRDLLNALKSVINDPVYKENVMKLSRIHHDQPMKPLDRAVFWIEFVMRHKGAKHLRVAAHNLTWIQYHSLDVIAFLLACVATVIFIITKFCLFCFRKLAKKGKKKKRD
Description: Activity of human UGT2B15 expressed in microsomes isolated from baculovirus infected insect cell assessed as enzyme-mediated (2S,3S,4S,5R,6R)-3,4,5-trihydroxy-6-(5-(4-((6-methoxy-1-methyl-1H-benzo[d]imidazol-2-yl)methoxy)benzyl)-2,4-dioxothiazolidin-3-yl)tetrahydro-2H-pyran-2-carboxylic acid formation at 20 uM after 4 hrs by radio-HPLC/LC-MS/MS analysis in presence of UDPGA. The series is classed as ADME.

In series [4] the target is T2, UDP-glucuronosyltransferase 2B15. Description: Activity of human UGT2B15 expressed in microsomes isolated from baculovirus infected insect cell assessed as enzyme-mediated (2S,3S,4S,5R,6R)-6-((1-carboxy-2-(4-((6-methoxy-1-methyl-1H-benzo[d]imidazol-2-yl)methoxy)phenyl)ethylthio)carbonylamino)-3,4,5-trihydroxytetrahydro-2H-pyran-2-carboxylic acid formation at 20 uM after 4 hrs by radio-HPLC/LC-MS/MS analysis in presence of UDPGA. The series is classed as ADME.

Series [5] addresses T3, UDP-glucuronosyltransferase 1A3 (Homo sapiens, UniProt P35503).
T3 sequence (P35503 whole entry): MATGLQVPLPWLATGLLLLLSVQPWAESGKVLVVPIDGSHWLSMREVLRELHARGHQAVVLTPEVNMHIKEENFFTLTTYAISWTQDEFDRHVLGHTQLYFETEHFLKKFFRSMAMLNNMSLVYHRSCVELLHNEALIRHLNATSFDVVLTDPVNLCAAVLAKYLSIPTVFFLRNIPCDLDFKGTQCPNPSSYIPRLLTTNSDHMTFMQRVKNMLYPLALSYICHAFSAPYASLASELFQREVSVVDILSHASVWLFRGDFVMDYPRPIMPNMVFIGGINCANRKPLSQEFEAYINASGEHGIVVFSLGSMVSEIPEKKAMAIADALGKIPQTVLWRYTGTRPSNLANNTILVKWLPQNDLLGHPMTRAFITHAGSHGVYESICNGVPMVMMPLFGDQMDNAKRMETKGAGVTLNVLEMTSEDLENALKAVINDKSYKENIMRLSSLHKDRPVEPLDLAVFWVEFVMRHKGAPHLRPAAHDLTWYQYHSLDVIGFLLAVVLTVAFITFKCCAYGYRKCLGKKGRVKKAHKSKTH
Description: Activity of human UGT1A3 expressed in microsomes isolated from baculovirus infected insect cell assessed as enzyme-mediated 3-(4-((6-methoxy-1-methyl-1H-benzo[d]imidazol-2-yl)methoxy)phenyl)-2-(methylthio)propanoic acid formation at 20 uM after 4 hrs by radio-HPLC/LC-MS/MS analysis in presence of NADPH-generating system/SAM and UDPGA/SAM in presence of UDPGA and UDPGA/SAM. Format: ADME.

Series [6] deals with T3, UDP-glucuronosyltransferase 1A3. Description: Activity of human UGT1A3 expressed in microsomes isolated from baculovirus infected insect cell assessed as enzyme-mediated 3-(4-((6-methoxy-1-methyl-1H-benzo[d]imidazol-2-yl)methoxy)phenyl)-2-(methylsulfonyl)propanamide formation at 20 uM after 4 hrs by radio-HPLC/LC-MS/MS analysis in presence of NADPH-generating system/SAM. The series is classed as ADME.

As for `COc1ccc2nc(COc3ccc(C[14CH]4SC(=O)NC4=O)cc3)n(C)c2c1.Cl` (racemic), the Drug metabolism result in the series with Liver microsome was “metabolite_detected”; in series [1], “metabolite_not_detected”; on Cytochrome P450 2C8 it was “metabolite_not_detected”; in [2] it was “metabolite_detected”; at Cytochrome P450 3A4 it was “metabolite_detected”; in series [3], “metabolite_not_detected”. The Drug metabolism result in series [4], in [5] and in [6] was “metabolite_not_detected” each time.
